{"source": "patent US20040023806A1", "about": "(priority 1999, published 2004)", "key": {"Phytophthora infestans": {"test_system": "Phytophthora infestans", "assay_type": "in vivo", "settings": "tomato plants sprayed with 0.02% active substance, infected 24 hours later, assessed 5 days after infection"}, "Venturia inaequalis": {"test_system": "Venturia inaequalis", "test": "Residual protective activity against Venturia inaequalis in apples", "assay_type": "in vivo", "settings": "apple seedlings sprayed with 0.02% active substance, infected 24 hours later, assessed 12 days after infection", "experimental": "Apple seedlings with fresh shoots 10 to 20 cm long are sprayed to runoff with an aqueous spray liquor (0.02% active substance) prepared from a wettable powder of the active substance and 24 hours later are infected with a conidia suspension of the fungus. The plants are incubated at from 90 to 100 percent relative atmospheric humidity for 5 days and placed in a greenhouse at from 20 to 24° C. for […]. Fungal infestation is assessed 12 days after infection."}, "Aphis craccivora": {"test_system": "Aphis craccivora", "test": "Activity against Aphis craccivora", "assay_type": "in vivo", "settings": "pea seedlings, spray liquor 100 ppm active substance, 20° C., 3 and 6 days later", "experimental": "Pea seedlings are infected with Aphis craccivora and sprayed with a spray liquor containing 100 ppm active substance and incubated at 20° C. 3 and 6 days later, the percentage reduction in the population (% activity) is determined by comparing the number of dead aphids on the treated and untreated plants."}, "Cercospora arachidicola": {"test_system": "Cercospora arachidicola", "test": "Residual protective activity against Cercospora arachidicola in peanuts", "assay_type": "in vivo", "settings": "peanut plants sprayed with 0.02% active substance, infected 48 hours later, evaluated 12 days after infection (number and size of leaf spots)", "experimental": "Peanut plants 10 to 15 cm high are sprayed to runoff with an aqueous spray liquor (0.02% active substance) prepared from a wettable powder of the active substance and 48 hours later are infected with a conidia suspension of the fungus. The plants are incubated at 21° C. and high atmospheric humidity for 72 hours and then placed in a greenhouse until the typical leaf spots appear. The activity of the active substance is evaluated 12 days after infection, on the basis of the number and size of leaf spots."}}, "data": [{"compound": "CCO/N=C(/C(C)=N/N=C/c1ccccc1N(C)C(=O)OC)c1ccc(Oc2ccc(C(F)(F)F)cc2)cc1", "note": "[Compound 1 from table a, Methyl N-methyl-[2-({2-ethoxyimino-1-methyl-2-[4-(4-trifluoromethylphenoxy)phenyl]ethylidene}hydrazonomethyl)phenyl]carbamate]", "values": [{"measurement": "activity", "setting": "Phytophthora infestans", "value": "more than 80%"}, {"measurement": "activity", "setting": "Venturia inaequalis", "value": "more than 80%"}]}, {"compound": "CCON=C(C(C)=NN=Cc1ccccc1N(COC)C(=O)OC)c1ccc(Oc2ccc(C(F)(F)F)cc2)cc1", "note": "[Compound 5 from table a, methyl N-methoxymethyl-[2-({2-ethoxyimino-1-methyl-2-[4-(4-trifluoromethylphenoxy)phenyl]ethylidene}hydrazonomethyl)phenyl]carbamate]", "values": [{"measurement": "kill rate (% activity, reduction in population)", "setting": "Aphis craccivora", "value": "more than 80%"}]}, {"compound": "CCN(C(=O)OC)c1ccccc1CO/N=C(C)/C(C)=N/OC", "note": "[Compound 7 from table b, Methyl N-ethyl-[2-(2-(E)-methoxyimino-1-methyl-(E)-propylideneaminooxymethyl)phenyl]carbamate]", "values": [{"measurement": "melting point", "value": "101 to 102", "unit": "°C"}, {"measurement": "activity", "setting": "Cercospora arachidicola", "value": "more than 80%"}]}, {"compound": "CO/N=C(C)/C(C)=N/OCc1ccccc1NC(=O)OC", "note": "[Compound 1 from table b, Methyl [2-(2-(E)-methoxyimino-1-methyl-(E)-propylideneaminooxymethyl)phenyl]carbamate]", "values": [{"measurement": "melting point", "value": "96.5 to 97.5", "unit": "°C"}]}, {"compound": "CO/N=C(/C(C)=N/OCc1ccccc1NC(=O)OC)c1ccc(F)cc1", "values": [{"measurement": "melting point", "value": "143 to 144", "unit": "°C"}]}]}
